Data on 24 compounds can be found in patent US11795177B2, “Substituted quinoline analogs as aldehyde dehydrogenase 1A1 (ALDH1A1) inhibitors” (THE UNITED STATES OF AMERICA, AS REPRESENTED BY THE …, priority 2017, dated 2023).

pIC50: −log10 of the molar value. Where only a bound is given, the exact number is not on record here.

Assay [1] addresses T1, ALDH1A1 enzyme (Homo sapiens, UniProt P00352).
T1 sequence (P00352 1-501): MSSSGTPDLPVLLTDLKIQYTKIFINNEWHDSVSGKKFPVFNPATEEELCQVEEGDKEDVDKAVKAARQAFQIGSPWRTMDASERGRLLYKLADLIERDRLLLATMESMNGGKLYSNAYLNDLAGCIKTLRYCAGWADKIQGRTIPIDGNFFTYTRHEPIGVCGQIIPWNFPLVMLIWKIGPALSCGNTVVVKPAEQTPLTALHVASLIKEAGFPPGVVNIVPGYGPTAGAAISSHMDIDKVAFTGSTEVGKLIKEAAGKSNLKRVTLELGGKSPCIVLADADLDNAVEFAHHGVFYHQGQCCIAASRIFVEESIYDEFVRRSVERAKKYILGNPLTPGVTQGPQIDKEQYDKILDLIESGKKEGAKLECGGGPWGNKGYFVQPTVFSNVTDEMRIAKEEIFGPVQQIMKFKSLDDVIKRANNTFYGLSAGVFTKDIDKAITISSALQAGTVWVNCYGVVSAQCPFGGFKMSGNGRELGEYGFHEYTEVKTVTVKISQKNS
Description: ALDH1A1 enzymatic assay (in vitro). It counts as biochemical. Conditions: ALDH1A1 enzyme 20 nM, NAD+ 1 mM, propionaldehyde 80 μM; read-out: ALDH1A1 IC50. In outline:
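ALDH1A1 (20 nM final) in 100 mM HEPES pH 7.5, 0.01% Tween 20 was preincubated 15 min at RT with compound (968 pM–57.2 μM final), then started with 1 mM NAD+ and 80 μM propionaldehyde. NADH fluorescence (ex 340/em 450 nm) followed kinetically for 10 min; change normalized to no-inhibitor and no-enzyme controls for percent inhibition and curve fitting.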

In assay [2] the test system is MIA PaCa-2 cells. Description: MIA PaCa2 cell-based assay (1,536-well high-content imaging ALDEFLUOR assay). Details: species or system human. Conditions: Homo sapiens, 0.5 h, ALDEFLUOR BAAA substrate 500 nM, 30 minutes. The method in brief: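 High-content ALDEFLUOR imaging readout: BAA-retaining cells in FITC channel scored against Hoechst-counted nuclei. Before imaging, MIA PaCa-2 cells seeded at 1,000 per well received final 500 nM BAAA and 0.5 nM Hoechst with compounds in 16-point series (1.4 nM to 47.8 μM), 30 min, 37° C.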

A word on the pIC50: it is −log10 of the IC50, conventionally taken in molar units. With `CCC(=O)N1CCN(C(=O)c2cnc3ccc(Cl)cc3c2N2CCC(C)(C#N)CC2)CC1` [Example 118, 1-(6-chloro-3-(4-propionylpiperazine-1-carbonyl)quinolin-4-yl)-4-methylpiperidine-4-carbonitrile], the pIC50 is greater than 6.30 in assay [1] and 5.00 to 6.00 in assay [2].
As for `CC1(C#N)CCN(c2c(C(=O)N3CCN(S(C)(=O)=O)CC3)cnc3ccc(Cl)cc23)CC1` [Example 119, 1-(6-chloro-3-(4-(methylsulfonyl)piperazine-1-carbonyl)quinolin-4-yl)-4-methylpiperidine-4-carbonitrile], the pIC50 in assay [1] is greater than 6.30; in assay [2] it was 5.00 to 6.00.
On the same counts, the results for `CC1(C#N)CCN(c2c(C(=O)N3CCN(S(=O)(=O)C4CC4)CC3)cnc3ccc(Cl)cc23)CC1` [Example 120, 1-(6-chloro-3-(4-(cyclopropylsulfonyl)piperazine-1-carbonyl)quinolin-4-yl)-4-methylpiperidine-4-carbonitrile] are greater than 6.30 and 5.00 to 6.00.
On the same counts, the results for `CCNC(=O)N1CCN(C(=O)c2cnc3ccc(Cl)cc3c2N2CCC(C)(C#N)CC2)CC1` [Example 121, 4-(6-chloro-4-(4-cyano-4-methylpiperidin-1-yl)quinoline-3-carbonyl)-N-ethylpiperazine-1-carboxamide] are greater than 6.30 and 5.00 to 6.00.
In the case of `COc1c(F)cc2c(N3CCC4(CC3)OCCO4)c(C(=O)N3CCN(C(=O)C4CC4)CC3)cnc2c1F` [Example 123, (4-(cyclopropanecarbonyl)piperazin-1-yl)(6,8-difluoro-7-methoxy-4-(1,4-dioxa-8-azaspiro[4.5]decan-8-yl)quinolin-3-yl)methanone], the negative logarithm of the IC50 (pIC50) in assay [1] is greater than 6.30; in assay [2], 5.00 to 6.00.
In the same order, the values of `O=C(c1cnc2c(F)c(F)c(F)cc2c1N1CCC2(CC1)OCCO2)N1CCN(C(=O)C2CC2)CC1` [Example 124, (4-(cyclopropanecarbonyl)piperazin-1-yl)(6,7,8-trifluoro-4-(1,4-dioxa-8-azaspiro[4.5]decan-8-yl)quinolin-3-yl)methanone] are greater than 6.30 and 5.00 to 6.00.
In the same order, the values of `CC1(C#N)CCN(c2c(C(=O)N3CCN(C(=O)C4CC4)CC3)cnc3c(F)cc(F)cc23)CC1` [Example 125, 1-(3-(4-(cyclopropanecarbonyl)piperazine-1-carbonyl)-6,8-difluoroquinolin-4-yl)-4-methylpiperidine-4-carbonitrile] are greater than 6.30 and 5.00 to 6.00.
With `CC1(C#N)CCN(c2c(C(=O)N3CCN(C(=O)C4CC4)CC3)cnc3cc(F)c(F)cc23)CC1` [Example 126, 1-(3-(4-(cyclopropanecarbonyl)piperazine-1-carbonyl)-6,7-difluoroquinolin-4-yl)-4-methylpiperidine-4-carbonitrile], the pIC50 in assay [1] was greater than 6.30; in assay [2] it was 5.00 to 6.00.
In the same order, the values of `COc1c(F)cc2c(N3CCC(C)(C#N)CC3)c(C(=O)N3CCN(C(=O)C4CC4)CC3)cnc2c1F` [Example 127, 1-(3-(4-(cyclopropanecarbonyl)piperazine-1-carbonyl)-6,8-difluoro-7-methoxyquinolin-4-yl)-4-methylpiperidine-4-carbonitrile] are greater than 6.30 and 5.00 to 6.00.
On the same counts, the results for `CC1(C#N)CCN(c2c(C(=O)N3CCN(C(=O)C4CC4)CC3)cnc3c(F)c(F)c(F)cc23)CC1` [Example 128, 1-(3-(4-(cyclopropanecarbonyl)piperazine-1-carbonyl)-6,7,8-trifluoroquinolin-4-yl)-4-methylpiperidine-4-carbonitrile] are greater than 6.30 and 5.00 to 6.00.
In the same order, the values of `COc1ccc2c(N3CCC4(CC3)OCCO4)c(C(=O)N3CCN(S(C)(=O)=O)CC3)cnc2c1` [Example 129, (7-methoxy-4-(1,4-dioxa-8-azaspiro[4.5]decan-8-yl)quinolin-3-yl)(4-(methylsulfonyl)piperazin-1-yl)methanone] are greater than 6.30 and 5.00 to 6.00.
In the case of `COc1cc2ncc(C(=O)N3CCN(S(C)(=O)=O)CC3)c(N3CCC4(CC3)OCCO4)c2cc1OC` [Example 130, (6,7-dimethoxy-4-(1,4-dioxa-8-azaspiro[4.5]decan-8-yl)quinolin-3-yl)(4-(methylsulfonyl)piperazin-1-yl)methanone], the pIC50 in assay [1] is greater than 6.30; in assay [2], 5.00 to 6.00.
On the same counts, the results for `CS(=O)(=O)N1CCN(C(=O)c2cnc3c(F)cc(F)cc3c2N2CCC3(CC2)OCCO3)CC1` [Example 131, (6,8-difluoro-4-(1,4-dioxa-8-azaspiro[4.5]decan-8-yl)quinolin-3-yl)(4-(methylsulfonyl)piperazin-1-yl)methanone] are greater than 6.30 and 5.00 to 6.00.
In the same order, the values of `CS(=O)(=O)N1CCN(C(=O)c2cnc3cc(F)c(F)cc3c2N2CCC3(CC2)OCCO3)CC1` [Example 132, (6,7-difluoro-4-(1,4-dioxa-8-azaspiro[4.5]decan-8-yl)quinolin-3-yl)(4-(methylsulfonyl)piperazin-1-yl)methanone] are greater than 6.30 and 5.00 to 6.00.
On the same counts, the results for `COc1c(F)cc2c(N3CCC4(CC3)OCCO4)c(C(=O)N3CCN(S(C)(=O)=O)CC3)cnc2c1F` [Example 133, (6,8-difluoro-7-methoxy-4-(1,4-dioxa-8-azaspiro[4.5]decan-8-yl)quinolin-3-yl)(4-(methylsulfonyl)piperazin-1-yl)methanone] are greater than 6.30 and 5.00 to 6.00.
Turning to `CS(=O)(=O)N1CCN(C(=O)c2cnc3c(F)c(F)c(F)cc3c2N2CCC3(CC2)OCCO3)CC1` [Example 134, (4-(methylsulfonyl)piperazin-1-yl)(6,7,8-trifluoro-4-(1,4-dioxa-8-azaspiro[4.5]decan-8-yl)quinolin-3-yl)methanone], the pIC50 was greater than 6.30 in assay [1] and 5.00 to 6.00 in assay [2].
On the same counts, the results for `CC1(C#N)CCN(c2c(C(=O)N3CCN(S(C)(=O)=O)CC3)cnc3c(F)cc(F)cc23)CC1` [Example 135, 1-(6,8-difluoro-3-(4-(methylsulfonyl)piperazine-1-carbonyl)quinolin-4-yl)-4-methylpiperidine-4-carbonitrile] are greater than 6.30 and 5.00 to 6.00.
On the same counts, the results for `CC1(C#N)CCN(c2c(C(=O)N3CCN(S(C)(=O)=O)CC3)cnc3cc(F)c(F)cc23)CC1` [Example 136, 1-(6,7-difluoro-3-(4-(methylsulfonyl)piperazine-1-carbonyl)quinolin-4-yl)-4-methylpiperidine-4-carbonitrile] are greater than 6.30 and 5.00 to 6.00.
On the same counts, the results for `COc1c(F)cc2c(N3CCC(C)(C#N)CC3)c(C(=O)N3CCN(S(C)(=O)=O)CC3)cnc2c1F` [Example 137, 1-(6,8-difluoro-7-methoxy-3-(4-(methylsulfonyl)piperazine-1-carbonyl)quinolin-4-yl)-4-methylpiperidine-4-carbonitrile] are greater than 6.30 and 6.00 to 6.30.
On to `CC1(C#N)CCN(c2c(C(=O)N3CCN(S(C)(=O)=O)CC3)cnc3c(F)c(F)c(F)cc23)CC1` [Example 138, 4-methyl-1-(6,7,8-trifluoro-3-(4-(methylsulfonyl)piperazine-1-carbonyl)quinolin-4-yl)piperidine-4-carbonitrile], for which the pIC50 in assay [1] was greater than 6.30; in assay [2] it was 5.00 to 6.00.
On the same counts, the results for `CCNC(=O)N1CCN(C(=O)c2cnc3cc(OC)ccc3c2N2CCC3(CC2)OCCO3)CC1` [Example 139, N-ethyl-4-(7-methoxy-4-(1,4-dioxa-8-azaspiro[4.5]decan-8-yl)quinoline-3-carbonyl)piperazine-1-carboxamide] are greater than 6.30 and 5.00 to 6.00.
As to `CCNC(=O)N1CCN(C(=O)c2cnc3cc(OC)c(OC)cc3c2N2CCC3(CC2)OCCO3)CC1` [Example 140, 4-(6,7-dimethoxy-4-(1,4-dioxa-8-azaspiro[4.5]decan-8-yl)quinoline-3-carbonyl)-N-ethylpiperazine-1-carboxamide], the negative-log IC50 (pIC50) in assay [1] was greater than 6.30; in assay [2], less than 5.00.
In the same order, the values of `CCNC(=O)N1CCN(C(=O)c2cnc3c(F)cc(F)cc3c2N2CCC3(CC2)OCCO3)CC1` [Example 141, 4-(6,8-difluoro-4-(1,4-dioxa-8-azaspiro[4.5]decan-8-yl)quinoline-3-carbonyl)-N-ethylpiperazine-1-carboxamide] are greater than 6.30 and 5.00 to 6.00.
In the same order, the values of `CCNC(=O)N1CCN(C(=O)c2cnc3cc(F)c(F)cc3c2N2CCC3(CC2)OCCO3)CC1` [Example 142, 4-(6,7-difluoro-4-(1,4-dioxa-8-azaspiro[4.5]decan-8-yl)quinoline-3-carbonyl)-N-ethylpiperazine-1-carboxamide] are greater than 6.30 and 5.00 to 6.00.
